Source: patent US12187709B2 (Genentech, Inc., priority 2021, dated 2025)

Columns and labels:
[1] = biological target: c-Cbl (Homo sapiens (Human), UniProt P22681); test: C-Cbl LCK Ub TR-FRET assay (C-cbl Lck HTRF); format: biochemical
How it was run: (§1)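 Detection reagents added, brief spin, 20 min RT. IC50 fit normalized to no-LCK (low) and DMSO (high) controls.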

[2] = biological target: Human Cbl-b (residues 40-426) (Homo sapiens (Human), UniProt Q13191); test: Cbl-b SPR assay; format: binding; conditions: for Fold of selectivity: C-cbl SPR Kd vs Cbl-b SPR Kd; for Kd: SPR, 20° C.
Sequence of Human Cbl-b (residues 40-426) (Q13191 40-426): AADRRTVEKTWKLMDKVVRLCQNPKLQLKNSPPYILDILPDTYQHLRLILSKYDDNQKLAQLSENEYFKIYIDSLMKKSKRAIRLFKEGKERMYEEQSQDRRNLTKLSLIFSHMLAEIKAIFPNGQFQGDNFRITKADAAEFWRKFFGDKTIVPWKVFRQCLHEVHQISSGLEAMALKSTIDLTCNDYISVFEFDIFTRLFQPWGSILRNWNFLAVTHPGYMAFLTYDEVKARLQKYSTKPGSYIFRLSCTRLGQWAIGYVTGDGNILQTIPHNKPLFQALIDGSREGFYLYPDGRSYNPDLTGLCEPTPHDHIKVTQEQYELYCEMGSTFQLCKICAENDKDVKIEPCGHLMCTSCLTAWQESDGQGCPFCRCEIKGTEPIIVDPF
How it was run: (§2)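 Where a chaser compound was used, % compound bound was calculated as (1−(RUT/RUT0))*100 relative to a prior chaser injection and fitted to a single exponential for kd. The single cycle titration (max 500 nM) was then fitted with kd held fixed.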

[3] = biological target: Cbl-b (Homo sapiens (Human), UniProt Q13191); test: Cbl-b LCK Ub TR-FRET assay (Cbl-b Lck HTRF); format: biochemical; conditions: for IC50: Cbl-b LCK Ub TR-FRET; for fold-selectivity (Cbl-b over C-cbl): ratio C-cbl Lck HTRF IC50 / Cbl-b Lck HTRF IC50
Sequence of Cbl-b (Q13191 40-426): as above
How it was run: as §1

[4] = biological target: c-Cbl (residues 47-435) (Homo sapiens (Human), UniProt P22681); test: c-Cbl SPR assay; format: binding; conditions: 20° C.
Sequence of c-Cbl (residues 47-435) (P22681 47-435): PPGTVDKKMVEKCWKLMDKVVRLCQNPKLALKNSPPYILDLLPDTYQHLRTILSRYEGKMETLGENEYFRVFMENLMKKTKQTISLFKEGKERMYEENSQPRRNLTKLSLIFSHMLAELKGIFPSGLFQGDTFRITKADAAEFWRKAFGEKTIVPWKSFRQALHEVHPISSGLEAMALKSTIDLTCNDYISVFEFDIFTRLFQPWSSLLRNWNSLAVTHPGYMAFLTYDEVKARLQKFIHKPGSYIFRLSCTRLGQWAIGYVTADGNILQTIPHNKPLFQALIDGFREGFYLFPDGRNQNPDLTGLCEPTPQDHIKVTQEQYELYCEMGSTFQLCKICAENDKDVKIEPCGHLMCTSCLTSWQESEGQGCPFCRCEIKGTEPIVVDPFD
How it was run: as §2

Sequence of c-Cbl (P22681 47-435): as above

Compound | IC50 [1] | Fold of selectivity [2] | Kd [2] | IC50 [3] | fold-selectivity (Cbl-b over C-cbl) [3] | Kd [4]
Cn1cnnc1[C@H](c1cccc(N2Cc3c(cc(CNC4(C)CCC4)cc3C(F)(F)F)C2=O)c1)n1ccnc1 (single isomer, unassigned) [Compound 345] | 11000 nM | 3× | 1300 nM | 2400 nM | 4.4x | 4100 nM
Cn1nnnc1[C@@H](c1cccc(N2Cc3c(cc(CNC4(C)CCC4)cc3C(F)(F)F)C2=O)c1)C1COC1 (single isomer, unassigned) [Compound 348] | 500 nM | 8.4× | 75 nM | 140 nM | 3.5x | 630 nM
Cn1cnnc1C1(c2cccc(N3Cc4c(cc(CNC5(C)CCC5)cc4C(F)(F)F)C3=O)c2)CC(OC(F)(F)F)C1 (single isomer, unassigned) [Compound 351, 2-(3-((1r,3r)-1-(4-methyl-4H-1,2,4-triazol-3-yl)-3-(trifluoromethoxy)cyclobutyl)phenyl)-6-(((1-methylcyclobutyl)amino)methyl)-4-(trifluoromethyl)isoindolin-1-one] | 20 nM | 16× | 1.2 nM | 6.4 nM | 6.4x | 19 nM
Cn1ccnc1[C@@H](c1cccc(N2Cc3c(cc(CNC4(C)CCC4)cc3C(F)(F)F)C2=O)c1)C1COC1 (single isomer, unassigned) [Compound 352] | 280 nM | 7.6× | 34 nM | 69 nM | 4.1x | 270 nM
Cn1cnnc1C(c1cccc(N2Cc3c(cc(CNC4(C)CCC4)cc3C(F)(F)F)C2=O)c1)[C@H]1C[C@H](Cl)C1 (single isomer, unassigned) [Compound 356] | 180 nM | 11× | 19 nM | 29 nM | 6.1x | 210 nM
Cn1cnnc1C(c1cccc(N2Cc3c(cc(CNC4(C)CCC4)cc3C(F)(F)F)C2=O)c1)[C@H]1C[C@@H](Cl)C1 (single isomer, unassigned) [Compound 357] | 7.1 nM | 5.5× | 0.4 nM | 5.2 nM | 1.4x | 2.2 nM
CC[C@@H](c1cccc(N2Cc3c(Cl)cc(CNC4(C)CCC4)cc3C2=O)c1)c1nncn1C (single isomer, unassigned) [Compound 359] | 4.1 nM | 2.1× | 0.4 nM | 4.8 nM | 0.85x | 0.82 nM
CO[C@H]1C[C@](c2cccc(N3Cc4c(cc([C@H](N)C(C)(C)C)cc4C(F)(F)F)C3=O)c2)(c2nncn2C)C1 (single isomer, unassigned) [Compound 360] | 590 nM | 10× | 84 nM | 92 nM | 6.4x | 840 nM
CO[C@H]1C[C@](c2cccc(N3Cc4c(cc([C@@H](N)C(C)(C)C)cc4C(F)(F)F)C3=O)c2)(c2nncn2C)C1 (single isomer, unassigned) [Compound 361] | 36 nM | 21× | 4 nM | 8.1 nM | 4.4x | 84 nM
Cn1cnnc1C(c1cccc(N2Cc3c(cc(CNC4(C)CCC4)cc3C(F)(F)F)C2=O)c1)[C@H]1C[C@@H](CC#N)C1 (single isomer, unassigned) [Compound 362] | 38 nM | 21× | 2.9 nM | 6 nM | 6.3x | 59 nM
Cn1cnnc1C(c1cccc(N2Cc3c(cc(CNC4(C)CCC4)cc3C(F)(F)F)C2=O)c1)[C@H]1C[C@H](CC#N)C1 (single isomer, unassigned) [Compound 363] | 140 nM | 3.6× | 78 nM | 61 nM | 2.3x | 280 nM
Cn1cnnc1C(c1cccc(N2Cc3c(cc(CNC4(C)CCC4)cc3C(F)(F)F)C2=O)c1)[C@H]1C[C@H](CC#N)C1 (single isomer, unassigned) [Compound 364] | 3.3 nM | 4.4× | 0.55 nM | 2.5 nM | 1.3x | 2.4 nM

Further lines, results first:

IC50 [1] | Fold of selectivity [2] | Kd [2] | IC50 [3] | fold-selectivity (Cbl-b over C-cbl) [3] | Kd [4] | Compound
5.9 nM | 6× | 0.85 nM | 4.8 nM | 1.2x | 7.2 nM | Cn1cnnc1C(c1cccc(N2Cc3c(cc(CNC4(C)CCC4)cc3C(F)(F)F)C2=O)c1)[C@H]1C[C@@H](CC#N)C1 (single isomer, unassigned) [Compound 365]
1000 nM | 7.2× | 210 nM | 240 nM | 4.3x | 1500 nM | CO[C@H]1C[C@@](O)(C(c2cccc(N3Cc4c(cc(CNC5(C)CCC5)cc4C(F)(F)F)C3=O)c2)c2nncn2C)C1 (single isomer, unassigned) [Compound 369]
490 nM | 16× | 46 nM | – | 9.0x | 790 nM | Cn1cnnc1[C@H](c1cccc(N2Cc3c(cc(CNC4(C)CCC4)cc3C(F)(F)F)C2=O)c1)[C@H]1C[C@H](C)C1 (single isomer, unassigned) [Compound 376, 2-(3-((S)-(4-methyl-4H-1,2,4-triazol-3-yl)((1r,3S)-3-methylcyclobutyl)methyl)phenyl)-6-(((1-methylcyclobutyl)amino)methyl)-4-(trifluoromethyl)isoindolin-1-one]
2500 nM | 11× | 240 nM | 240 nM | 11x | 2600 nM | Cn1cnnc1[C@H](c1cccc(N2Cc3c(cc(CNC4(C)CCC4)cc3C(F)(F)F)C2=O)c1)[C@H]1C[C@@H](C)C1 (single isomer, unassigned) [Compound 377]
56 nM | 14× | 6.9 nM | 9.4 nM | 6.0x | 96 nM | Cn1cnnc1[C@@H](c1cccc(N2Cc3c(cc(CNC4(C)CCC4)cc3C(F)(F)F)C2=O)c1)[C@H]1C[C@H](C)C1 (single isomer, unassigned) [Compound 378]
9.5 nM | 6.7× | 0.9 nM | 6.8 nM | 1.6x | 6 nM | Cn1cnnc1[C@@H](c1cccc(N2Cc3c(cc(CNC4(C)CCC4)cc3C(F)(F)F)C2=O)c1)[C@H]1C[C@@H](C)C1 (single isomer, unassigned) [Compound 379]
7.1 nM | 5.0× | 0.8 nM | 6 nM | 1.2x | 4 nM | Cn1cnnc1[C@@H](c1cccc(N2Cc3c(cc(CNC4(C)CCC4)cc3C(F)(F)F)C2=O)c1)C1(F)COC1 (single isomer, unassigned) [Compound 380]
16 nM | 6.0× | 2.7 nM | 8.8 nM | 1.9x | 16 nM | Cn1cnnc1[C@H](c1cccc(N2Cc3c(cc(CNC4(C)CCC4)cc3C(F)(F)F)C2=O)c1)C1(F)COC1 (single isomer, unassigned) [Compound 381]
450 nM | 0.8× | 190 nM | 150 nM | 3.0x | 150 nM | CC(=O)C1CC([C@H](c2cccc(N3Cc4c(cc(CNC5(C)CCC5)cc4C(F)(F)F)C3=O)c2)c2nncn2C)C1 (single isomer, unassigned) [Compound 382]
24 nM | 7.7× | 2.6 nM | 19 nM | 1.3x | 20 nM | CC(=O)C1CC([C@@H](c2cccc(N3Cc4c(cc(CNC5(C)CCC5)cc4C(F)(F)F)C3=O)c2)c2nncn2C)C1 (single isomer, unassigned) [Compound 383]
66 nM | 5.6× | 7 nM | 24 nM | 2.8x | 39 nM | CC(=O)C1CC([C@@H](c2cccc(N3Cc4c(cc(CNC5(C)CCC5)cc4C(F)(F)F)C3=O)c2)c2nncn2C)C1 (single isomer, unassigned) [Compound 384]
720 nM | 0.7× | 560 nM | 260 nM | 2.8x | 390 nM | CC(=O)C1CC([C@H](c2cccc(N3Cc4c(cc(CNC5(C)CCC5)cc4C(F)(F)F)C3=O)c2)c2nncn2C)C1 (single isomer, unassigned) [Compound 385]
1000 nM | 9.5× | 200 nM | 130 nM | 7.8x | 1900 nM | Cn1cnnc1[C@@H](c1cccc(N2Cc3c(cc(CNC4(C)CCC4)cc3C(F)(F)F)C2=O)c1)C1CC(OC(F)F)C1 (single isomer, unassigned) [Compound 387]
